# Measurements as given in patent US12459940B2, “Oxazole compound as multi-targeted inhibitor of IRAK4 and BTK” (SHANGHAI FOSUN PHARMACEUTICAL INDUSTRIAL DEVELOPMENT CO., …, priority 2019, dated 2025).
# System: TNF-α secretion
# Assay: In vivo pharmacodynamic study of LPS-induced TNF-α secretion in SD rats
# Conditions: SD rat, oral
# Experimental: SD rats were orally given the solvent, the positive drug dexamethasone (DEX, 0.5 mg/kg) and the tested compound, and LPS (1 mg/kg) was intraperitoneally injected 0.5 hours after the administration. Two hours after LPS injection, the animals were euthanized by CO2, and blood samples were collected from the heart and placed in an anticoagulant tube containing EDTA-K2, then partial anticoagulated blood was centrifuged to separate the plasma and the plasma was frozen at −80° C.
# The plasma was taken out of the refrigerator at −80° C., thawed at room temperature, and the concentration of TNF-α in the plasma was detected according to the ELISA kit instructions.
# The experimental data were expressed by Mean±standard error (Mean±SEM), and the level of TNF-α was expressed by One-way ANOVA, and p<0.05 was considered as a significant difference. The result of in vivo pharmacodynamic study of TNF-α secretion in SD rats induced by […] (LPS) are shown in FIG. 1
structure (smiles),measurement,setting,value
Cc1cc(-c2nc(C(=O)Nc3cn4cc(CCC(C)(C)O)nc4cc3N3CCCCC3)co2)ccn1 [WX001],inhibitory effect on TNF-α secretion induced by LPS,"LPS 1 mg/kg intraperitoneal 0.5 hours after administration, plasma 2 hours after LPS",significant inhibitory effect
same,efficacy on LPS-induced TNF-α secretion compared with dexamethasone,dose of 20 mpk,equivalent to the efficacy of dexamethasone (DEX) at a dose of 0.5 mpk
